Like-named read-outs stand apart in the source and are kept apart here. Blank lines part the entries; values can stand above or below the compound they belong to.
Tests used:
[1] = Ketoconazole study: two-way pharmacokinetic interaction, plasma pharmacokinetics; assay type: in vivo, healthy subjects; details: for t½: mean (SD)
[2] = Ketoconazole study: adverse events; assay type: in vivo, healthy subjects
[3] = Simvastatin study: adverse events; assay type: in vivo, healthy subjects
[4] = Simvastatin study: two-way pharmacokinetic interaction, plasma pharmacokinetics; details: for decrease of Cmax by saxagliptin / increase of AUCτ by saxagliptin: saxagliptin 10 mg + simvastatin 40 mg relative to simvastatin alone
[5] = assay type: in vivo, healthy subjects; details: for t½: mean (SD)
[6] = Diltiazem extended-release study: adverse events; assay type: in vivo, healthy subjects; details: for first-degree atrioventricular block, subjects: by treatment: diltiazem extended-release 360 mg alone, saxagliptin 10 mg + diltiazem extended-release 360 mg, saxagliptin 10 mg alone
P-glycoprotein = details: in vitro data; no reference given; cited from earlier work
[7] = excreted in urine; cited from earlier work
CYP2C9 [8] = details: in vitro studies; cited from earlier work
CYP2C19 = details: in vitro studies; cited from earlier work
CYP2D6 = details: in vitro studies; cited from earlier work
CYP3A4 [9] = details: in vitro studies; cited from earlier work
CYP2C9 [10] = details: in vitro studies; cited from earlier work; remark: listed apart in the source
CYP3A4 [11] = details: in vitro studies; cited from earlier work; remark: listed apart in the source
DPP-4 = details: cited from earlier work
CYP1A2 [12] = details: in vitro studies; cited from earlier work
CYP2A6 = details: in vitro studies; cited from earlier work
CYP2B6 [13] = details: in vitro studies; cited from earlier work
CYP2E1 = details: in vitro studies; cited from earlier work
CYP1A2 [14] = details: in vitro studies; cited from earlier work; remark: listed apart in the source
CYP2B6 [15] = details: in vitro studies; cited from earlier work; remark: listed apart in the source
[16] = saxagliptin 100 mg + ketoconazole versus ketoconazole alone
[17] = compared with saxagliptin 10 mg alone
[18] = compared with saxagliptin alone
[19] = saxagliptin 10 mg + simvastatin 40 mg relative to saxagliptin alone
[20] = saxagliptin 10 mg + diltiazem extended-release 360 mg (day 10), geometric mean (CV%), n = 12
[21] = saxagliptin 10 mg administered alone (day 1), geometric mean (CV%), n = 12
[22] = saxagliptin 100 mg + ketoconazole 200 mg every 12 hours (day 9), geometric mean (CV%), n = 15
[23] = saxagliptin 100 mg administered alone (day 1), geometric mean (CV%), n = 15

SMILES: CCC(C)(C)C(=O)O[C@H]1C[C@@H](C)C=C2C=C[C@H](C)[C@H](CC[C@@H]3C[C@@H](O)CC(=O)O3)[C@H]21 [Simvastatin, simvastatin, reference compound]
subjects discontinued due to mild upper respiratory tract infection ([3]; simvastatin 40-mg group, diagnosed on day 5, deemed possibly related to study drug): One subject | decrease of Cmax by saxagliptin [4]: 12% | increase of AUCτ by saxagliptin [4]: 4%

SMILES: N#C[C@@H]1C[C@@H]2C[C@@H]2N1C(=O)[C@@H](N)C12CC3CC(CC(O)(C3)C1)C2 [Saxagliptin, saxagliptin, reference compound]
increase of AUC0-t by diltiazem extended-release [5, 17]: 113% | increase of AUC∞ by diltiazem extended-release [5, 17]: 109% | increase of Cmax by diltiazem extended-release [5, 17]: 63% | AUC0-t ([5]; human, plasma, oral, 10 mg): 152 ng·h/mL | AUC(0-inf) ([5]; human, plasma, oral, 10 mg): 158 ng·h/mL | Cmax ([5]; human, plasma, oral, 10 mg): 53 ng/mL | Tmax ([5]; human, plasma, oral, 10 mg): 0.5 h | half-life ([5]; human, plasma, oral, 10 mg): 2.38 h | increase of mean t½ by diltiazem extended-release ([5]; versus saxagliptin alone): 0.92 h | increase of AUC0-t by ketoconazole [1, 18]: 148% | increase of AUC∞ by ketoconazole [1, 18]: 145% | increase of Cmax by ketoconazole [1, 18]: 62% | AUC0-t ([1]; human, plasma, 100 mg): 1920 ng·h/mL | AUC(0-inf) ([1]; human, plasma, 100 mg): 1970 ng·h/mL | Cmax ([1]; human, plasma, 100 mg): 546 ng/mL | Tmax ([1]; human, plasma, 100 mg): 1 h | half-life ([1]; human, plasma, 100 mg): 2.37 h | increase of mean t½ by ketoconazole ([1]; versus saxagliptin alone): 1.1 h | serious adverse events or deaths ([3]; after coadministration of saxagliptin and simvastatin): no serious adverse events or deaths | serious adverse events or deaths ([6]; after coadministration of saxagliptin and diltiazem extended-release): no serious adverse events or deaths | first-degree atrioventricular block, subjects [6]: in no subjects | serious adverse events or deaths ([2]; after coadministration of saxagliptin and ketoconazole): no serious adverse events or deaths | substrate for the efflux transporter P-glycoprotein (P-glycoprotein): weak substrate | renal clearance [7]: approximately 230 mL/min | inhibition of CYP2C9 (CYP2C9 [8]): neither saxagliptin nor 5-hydroxy saxagliptin inhibits | inhibition of CYP2C19 (CYP2C19): neither saxagliptin nor 5-hydroxy saxagliptin inhibits | inhibition of CYP2D6 (CYP2D6): neither saxagliptin nor 5-hydroxy saxagliptin inhibits | inhibition of CYP3A4 (CYP3A4 [9]): neither saxagliptin nor 5-hydroxy saxagliptin inhibits | induction of CYP2C9 (CYP2C9 [10]): do not induce | induction of CYP3A4 (CYP3A4 [11]): do not induce | AUC ([4]; human, in vivo, 10 mg): 153 ng·h/mL | Cmax ([4]; human, in vivo, 10 mg): 44 ng/mL | Tmax ([4]; human, in vivo, 10 mg): 1 h | increase of AUCτ by simvastatin [4, 19]: 12%

SMILES: N#C[C@@H]1C[C@@H]2C[C@@H]2N1C(=O)[C@@H](N)C12CC3CC(O)(CC(O)(C3)C1)C2 [5-Hydroxy saxagliptin, 5-hydroxy saxagliptin]
decrease of AUC0-t by diltiazem extended-release [5, 17]: 36% | decrease of AUC∞ by diltiazem extended-release [5, 17]: 34% | decrease of Cmax by diltiazem extended-release [5, 17]: 43% | Cmax ([5]; plasma, SAXA + DILT XR, saxagliptin 10 mg + diltiazem extended-release 360 mg (day 10), geometric mean (CV%), n = 12): 63 (26) ng/mL | Cmax ([5]; plasma, SAXA, saxagliptin 10 mg administered alone (day 1), geometric mean (CV%), n = 12): 111 (20) ng/mL | AUC0-t [5, 20]: 338 (24) ng · h/mL | AUC∞ [5, 20]: 353 (23) ng · h/mL | t½ ([5]; saxagliptin 10 mg + diltiazem extended-release 360 mg (day 10)): 3.30 (0.53) h | Tmax ([5]; saxagliptin 10 mg + diltiazem extended-release 360 mg (day 10), median (minimum, maximum)): 1.50 (1.00, 2.50) h | AUC0-t [5, 21]: 526 (25) ng · h/mL | AUC∞ [5, 21]: 538 (25) ng · h/mL | t½ ([5]; saxagliptin 10 mg administered alone (day 1)): 3.04 (0.38) h | Tmax ([5]; saxagliptin 10 mg administered alone (day 1), median (minimum, maximum)): 1.50 (1.00, 2.00) h | decrease of AUC0-t by ketoconazole [1, 18]: 91% | decrease of AUC∞ by ketoconazole [1, 18]: 88% | decrease of Cmax by ketoconazole [1, 18]: 95% | Cmax ([1]; plasma, SAXA + KETO, saxagliptin 100 mg + ketoconazole 200 mg every 12 hours (day 9), geometric mean (CV%), n = 15): 53 (49) ng/mL | Cmax ([1]; plasma, SAXA, saxagliptin 100 mg administered alone (day 1), geometric mean (CV%), n = 15): 999 (24) ng/mL | AUC0-t [1, 22]: 473 (59) ng · h/mL | AUC∞ [1, 22]: 627 (43) ng · h/mL | t½ ([1]; saxagliptin 100 mg + ketoconazole 200 mg every 12 hours (day 9)): 6.33 (2.49) h | Tmax ([1]; saxagliptin 100 mg + ketoconazole 200 mg every 12 hours (day 9), median (minimum, maximum)): 2.00 (0.75, 4.00) h | AUC0-t [1, 23]: 5294 (19) ng · h/mL | AUC∞ [1, 23]: 5381 (19) ng · h/mL | t½ ([1]; saxagliptin 100 mg administered alone (day 1)): 3.68 (0.53) h | Tmax ([1]; saxagliptin 100 mg administered alone (day 1), median (minimum, maximum)): 1.50 (1.00, 2.00) h | DPP-4 inhibitive potency relative to the parent saxagliptin (DPP-4): one-half | renal clearance [7]: ~120 mL/min | inhibition of CYP1A2 (CYP1A2 [12]): neither saxagliptin nor 5-hydroxy saxagliptin inhibits | inhibition of CYP2A6 (CYP2A6): neither saxagliptin nor 5-hydroxy saxagliptin inhibits | inhibition of CYP2B6 (CYP2B6 [13]): neither saxagliptin nor 5-hydroxy saxagliptin inhibits | inhibition of CYP2C9 (CYP2C9 [8]): neither saxagliptin nor 5-hydroxy saxagliptin inhibits | inhibition of CYP2C19 (CYP2C19): neither saxagliptin nor 5-hydroxy saxagliptin inhibits | inhibition of CYP2D6 (CYP2D6): neither saxagliptin nor 5-hydroxy saxagliptin inhibits | inhibition of CYP2E1 (CYP2E1): neither saxagliptin nor 5-hydroxy saxagliptin inhibits | inhibition of CYP3A4 (CYP3A4 [9]): neither saxagliptin nor 5-hydroxy saxagliptin inhibits | induction of CYP1A2 (CYP1A2 [14]): do not induce | induction of CYP2B6 (CYP2B6 [15]): do not induce | induction of CYP2C9 (CYP2C9 [10]): do not induce | induction of CYP3A4 (CYP3A4 [11]): do not induce | Cmax ([4]; plasma, SAXA + SIMVA, saxagliptin 10 mg + simvastatin 40 mg (day 12), geometric mean (CV%), n = 23): 103 (29) ng/mL | Cmax ([4]; plasma, SAXA, saxagliptin 10 mg administered alone (day 4), geometric mean (CV%), n = 23): 96 (33) ng/mL | AUCτ ([4]; plasma, saxagliptin 10 mg + simvastatin 40 mg (day 12), geometric mean (CV%), n = 23): 538 (24) ng · h/mL | AUCτ ([4]; plasma, saxagliptin 10 mg administered alone (day 4), geometric mean (CV%), n = 23): 529 (26) ng · h/mL | Tmax ([4]; saxagliptin 10 mg + simvastatin 40 mg (day 12), median (minimum, maximum)): 1.50 (1.00, 2.00) h | increase of AUCτ by simvastatin [4, 19]: 2% | increase of Cmax by simvastatin [4, 19]: 8% | Tmax ([4]; saxagliptin 10 mg administered alone (day 4), median (minimum, maximum)): 1.50 (1.00, 3.00) h

More lines, main results first:

AUC ([1]; human, plasma, 200 mg): 42300 ng·h/mL | Cmax ([1]; human, plasma, 200 mg): 7040 ng/mL | Tmax ([1]; human, plasma, 200 mg): 2 h | decrease of AUCτ by saxagliptin [1, 16]: 13% | decrease of Cmax by saxagliptin [1, 16]: 16%
SMILES: CC(=O)N1CCN(c2ccc(OCC3COC(Cn4ccnc4)(c4ccc(Cl)cc4Cl)O3)cc2)CC1 (stereo not drawn) [Ketoconazole, ketoconazole]
headache, subjects ([2]; ketoconazole alone treatment group, 10/16): 62.5% | subjects discontinued due to adverse event of increased transaminases ([2]; mild, beginning on day 8, lasting 11 days, following ketoconazole alone): One subject

AUC ([5]; human, plasma, oral, 360 mg): 3870 ng·h/mL | Cmax ([5]; human, plasma, oral, 360 mg): 262 ng/mL | Tmax ([5]; human, plasma, oral, 360 mg): 13 h
SMILES: COc1ccc([C@@H]2Sc3ccccc3N(CCN(C)C)C(=O)[C@@H]2OC(C)=O)cc1 [Diltiazem, diltiazem, reference compound]
first-degree atrioventricular block, subjects [6]: 42.9% | subjects with first-degree atrioventricular block who discontinued the trial ([6]; diltiazem extended-release 360 mg alone, on day 5): two of these subjects | adverse events reported (of thirteen in the study) ([6]; diltiazem extended-release 360 mg monotherapy): 12

AUC ([4]; human, in vivo, 40 mg): 17.9 ng·h/mL | decrease of Cmax by saxagliptin [4]: unchanged | increase of AUCτ by saxagliptin [4]: 16% | Tmax ([4]; simvastatin 40 mg administered alone (day 8), median (minimum, maximum)): 4.00 (2.00, 8.00) h
SMILES: CCC(C)(C)C(=O)O[C@H]1C[C@@H](C)C=C2C=C[C@H](C)[C@H](CC[C@@H](O)C[C@@H](O)CC(=O)O)[C@H]21 [Simvastatin acid, simvastatin acid]

Reference: publication PMC3262391 (Clinical pharmacology : advances and applications, 2011)
